{"source": "patent US10556865B2", "about": "“Synergistic herbicidal composition containing certain pyridine or pyrimidine carboxylic acids and certain cereal and rice herbicides” (Dow AgroSciences, LLC, priority 2007, dated 2020)", "type_in_all_cases": "in vivo", "key": {"[1]": {"system": "Polygonum persicaria L. (POLPE)", "assay": "Postemergence herbicidal mixtures for weed control in direct seeded rice (greenhouse, visual % injury)"}, "[2]": {"system": "lamb's-quarters (Chenopodium album L; CHEAL)", "assay": "Postemergence herbicidal activity of mixtures in cereal crops (greenhouse, visual injury)", "outline": "(§1)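 Greenhouse postemergence; 2–3 true leaves; ~14 h light, ~18/17 °C. Cpd A or B (Me ester, TEA, K salt) ± 2nd cereal herbicide, solo and 2-/3-way mixes, 187 L/ha in acetone/DMSO-based carrier with crop oil concentrate and Triton X-77. Subirrigated; % injury at 20–22 d. Colby expected.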"}, "[3]": {"system": "green foxtail (Setaria viridis L; SETVI)", "assay": "Postemergence herbicidal activity of mixtures in cereal crops (greenhouse, visual injury)", "outline": "as §1"}, "[4]": {"system": "Canada thistle (Cirsium arvense L; CIRAR)", "assay": "Postemergence herbicidal activity of mixtures in cereal crops (greenhouse, visual injury)", "outline": "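Weeds grown in greenhouse (~14 h photoperiod, ~18/17 °C day/night) to second–third true leaf stage, sprayed postemergence with compound and second cereal herbicide alone or combined; solvent-blank controls. Injury scored visually after 20-22 days, 0–100% (complete kill); expected mixture activity = A+B−(A×B/100).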"}, "[5]": {"system": "rigid ryegrass (Lolium rigidum L; LOLRI)", "assay": "Postemergence herbicidal activity of mixtures in cereal crops (greenhouse, visual injury)", "outline": "as §1"}, "[6]": {"system": "Russian thistle (Salsola iberica L; SASKR)", "assay": "Postemergence herbicidal activity of mixtures in cereal crops (greenhouse, visual injury)", "outline": "as §1"}, "[7]": {"system": "ivy-leaved speedwell (Veronica hederifolia L; VERHE)", "assay": "Postemergence herbicidal activity of mixtures in cereal crops (greenhouse, visual injury)", "outline": "as §1"}, "[8]": {"system": "cut-leaf geranium (Geranium dissectum L; GERDI)", "assay": "Postemergence herbicidal activity of mixtures in cereal crops (greenhouse, visual injury)", "outline": "as §1"}, "[9]": {"system": "black mustard (Brassica nigra L; BRSNI)", "assay": "Postemergence herbicidal activity of mixtures in cereal crops (greenhouse, visual injury)", "settings": "Brassica, post-emergence, read-out: BRSNI Ob", "outline": "as §1"}, "[10]": {"system": "wild buckwheat (Polygonum convolvulus L; POLCO)", "assay": "Postemergence herbicidal activity of mixtures in cereal crops (greenhouse, visual injury)", "outline": "as §1"}}, "note": "Several values for one entry are separate records, joined by “and”; a condition that tells them apart may be missing. Equal values may be shown once. Read-outs that look alike come from different tables or passages of the source.", "data": [{"smiles": "COC(=O)c1nc(-c2ccc(Cl)c(OC)c2F)cc(N)c1Cl", "note": "[Compound A Methyl, 4-amino-3-chloro-6-(4-chloro-2-fluoro-3-methoxyphenyl)pyridine-2-carboxylic acid methyl ester]", "values": [{"measurement": "% Injury POLPE Ob", "setting": "[1]; alone 8.75 g/ha", "result": 50, "unit": "%"}, {"measurement": "% Injury POLPE Ob", "setting": "[1]; alone 17.5 g/ha", "result": 90, "unit": "%"}, {"measurement": "CHEAL Ob", "setting": "[2]; 17.5 g/ha", "result": 90, "unit": "%"}, {"measurement": "CHEAL Ob", "setting": "[2]; 35 g/ha", "result": 90, "unit": "%"}, {"measurement": "CHEAL Ob", "setting": "[2]; 70 g/ha", "result": 95, "unit": "%"}, {"measurement": "SETVI Ob", "setting": "[3]; 17.5 g/ha, Table 1", "result": 70, "unit": "%"}, {"measurement": "SETVI Ob", "setting": "[3]; 35 g/ha, Table 1", "result": 75, "unit": "%"}, {"measurement": "SETVI Ob", "setting": "[3]; 35 g/ha, Table 7", "result": 77, "unit": "%"}, {"measurement": "SETVI Ob", "setting": "[3]; 70 g/ha, Table 1", "result": 80, "unit": "%"}, {"measurement": "SETVI Ob", "setting": "[3]; 70 g/ha, Table 7", "result": 82, "unit": "%"}, {"measurement": "SETVI Ob", "setting": "[3]; 140 g/ha, Table 7", "result": 91, "unit": "%"}]}, {"smiles": "COc1c(Cl)ccc(-c2cc(N)c(Cl)c(C(=O)O)n2)c1F", "note": "[Compound A TEA, 4-amino-3-chloro-6-(4-chloro-2-fluoro-3-methoxyphenyl)pyridine-2-carboxylic acid]", "values": [{"measurement": "CIRAR Ob", "setting": "[4]; 35 g/ha", "result": 50, "unit": "%"}, {"measurement": "CIRAR Ob", "setting": "[4]; 70 g/ha", "result": 60, "unit": "%"}, {"measurement": "CIRAR Ob", "setting": "[4]; 140 g/ha", "result": 65, "unit": "%"}, {"measurement": "LOLRI Ob", "setting": "[5]; 35 g/ha, Table 12", "result": 0, "unit": "%"}, {"measurement": "LOLRI", "setting": "[5]; 35 g/ha, Table 13", "result": 0, "unit": "%"}, {"measurement": "LOLRI Ob", "setting": "[5]; 35 g/ha, Table 17", "result": 0, "unit": "%"}, {"measurement": "LOLRI", "setting": "[5]; 35 g/ha, Table 19", "result": 0, "unit": "%"}, {"measurement": "LOLRI Ob", "setting": "[5]; 70 g/ha, Table 12", "result": 0, "unit": "%"}, {"measurement": "LOLRI", "setting": "[5]; 70 g/ha, Table 13", "result": 0, "unit": "%"}, {"measurement": "LOLRI Ob", "setting": "[5]; 70 g/ha, Table 17", "result": 0, "unit": "%"}, {"measurement": "LOLRI", "setting": "[5]; 70 g/ha, Table 19", "result": 0, "unit": "%"}, {"measurement": "LOLRI Ob", "setting": "[5]; 140 g/ha, Table 12", "result": 10, "unit": "%"}, {"measurement": "LOLRI", "setting": "[5]; 140 g/ha, Table 13", "result": 10, "unit": "%"}, {"measurement": "LOLRI Ob", "setting": "[5]; 140 g/ha, Table 17", "result": 10, "unit": "%"}, {"measurement": "LOLRI", "setting": "[5]; 140 g/ha, Table 19", "result": 10, "unit": "%"}, {"measurement": "SASKR Ob", "setting": "[6]; 8.75 g/ha alone", "result": 80, "unit": "%"}, {"measurement": "SASKR Ob", "setting": "[6]; 17.5 g/ha alone", "result": 84, "unit": "%"}, {"measurement": "SASKR Ob", "setting": "[6]; 35 g/ha alone", "result": 87, "unit": "%"}, {"measurement": "SASKR Ob", "setting": "[6]; 70 g/ha alone", "result": 93, "unit": "%"}, {"measurement": "VERHE Ob", "setting": "[7]; 8.75 g/ha", "result": 10, "unit": "%"}, {"measurement": "VERHE Ob", "setting": "[7]; 17.5 g/ha", "result": 20, "unit": "%"}, {"measurement": "VERHE Ob", "setting": "[7]; 35 g/ha", "result": 50, "unit": "%"}, {"measurement": "VERHE Ob", "setting": "[7]; 70 g/ha", "result": 75, "unit": "%"}, {"measurement": "GERDI Ob", "setting": "[8]; 8.75 g/ha", "result": 50, "unit": "%"}, {"measurement": "GERDI Ob", "setting": "[8]; 8.75 g/ha alone", "result": "50% and 38%"}, {"measurement": "GERDI Ob", "setting": "[8]; 17.5 g/ha", "result": 55, "unit": "%"}, {"measurement": "GERDI Ob", "setting": "[8]; 17.5 g/ha alone", "result": "55% and 50%"}, {"measurement": "GERDI Ob", "setting": "[8]; 35 g/ha", "result": 65, "unit": "%"}, {"measurement": "GERDI Ob", "setting": "[8]; 35 g/ha alone", "result": "65% and 80%"}, {"measurement": "GERDI Ob", "setting": "[8]; 70 g/ha alone", "result": "78% and 85%"}, {"measurement": "pest or weed control at 8.75 g/ha", "setting": "[9]; 8.75 g/ha alone", "result": 70, "unit": "%"}, {"measurement": "pest or weed control at 8.75 g/ha", "setting": "[9]; 8.75 g/ha", "result": 70, "unit": "%"}, {"measurement": "pest or weed control at 17.5 g/ha", "setting": "[9]; 17.5 g/ha alone", "result": 91, "unit": "%"}, {"measurement": "pest or weed control at 17.5 g/ha", "setting": "[9]; 17.5 g/ha", "result": 91, "unit": "%"}, {"measurement": "pest or weed control at 35 g/ha", "setting": "[9]; 35 g/ha alone", "result": 98, "unit": "%"}, {"measurement": "pest or weed control at 35 g/ha", "setting": "[9]; 35 g/ha", "result": 98, "unit": "%"}, {"measurement": "pest or weed control at 70 g/ha", "setting": "[9]; 70 g/ha alone", "result": 99, "unit": "%"}, {"measurement": "pest or weed control at 70 g/ha", "setting": "[9]; 70 g/ha", "result": 99, "unit": "%"}, {"measurement": "POLCO Ob", "setting": "[10]; 8.75 g/ha", "result": 90, "unit": "%"}, {"measurement": "POLCO Ob", "setting": "[10]; 8.75 g/ha alone", "result": "90% and 76%"}, {"measurement": "POLCO Ob", "setting": "[10]; 17.5 g/ha", "result": 93, "unit": "%"}, {"measurement": "POLCO Ob", "setting": "[10]; 17.5 g/ha alone", "result": "93% and 88%"}, {"measurement": "POLCO Ob", "setting": "[10]; 35 g/ha", "result": 98, "unit": "%"}, {"measurement": "POLCO Ob", "setting": "[10]; 35 g/ha alone", "result": "98% and 96%"}, {"measurement": "POLCO Ob", "setting": "[10]; 70 g/ha", "result": 99, "unit": "%"}, {"measurement": "POLCO Ob", "setting": "[10]; 70 g/ha alone", "result": 99, "unit": "%"}]}]}
